Experiments:
Assay type in all cases: functional; call rule not given here
[1] = molecular target: Metabotropic glutamate receptor 6 (Rattus norvegicus, UniProt P35349); assay: Tested for the agonistic activity against Metabotropic glutamate receptor 6
[2] = molecular target: T1, Metabotropic glutamate receptor 5 (Rattus norvegicus, UniProt P31424); assay: Tested for the agonistic activity against Metabotropic glutamate receptor 5
[3] = molecular target: T2, Metabotropic glutamate receptor 1 (Rattus norvegicus, UniProt P23385); assay: Tested for the agonistic activity against Metabotropic glutamate receptor 1; Not active
T2 sequence (P23385 whole entry): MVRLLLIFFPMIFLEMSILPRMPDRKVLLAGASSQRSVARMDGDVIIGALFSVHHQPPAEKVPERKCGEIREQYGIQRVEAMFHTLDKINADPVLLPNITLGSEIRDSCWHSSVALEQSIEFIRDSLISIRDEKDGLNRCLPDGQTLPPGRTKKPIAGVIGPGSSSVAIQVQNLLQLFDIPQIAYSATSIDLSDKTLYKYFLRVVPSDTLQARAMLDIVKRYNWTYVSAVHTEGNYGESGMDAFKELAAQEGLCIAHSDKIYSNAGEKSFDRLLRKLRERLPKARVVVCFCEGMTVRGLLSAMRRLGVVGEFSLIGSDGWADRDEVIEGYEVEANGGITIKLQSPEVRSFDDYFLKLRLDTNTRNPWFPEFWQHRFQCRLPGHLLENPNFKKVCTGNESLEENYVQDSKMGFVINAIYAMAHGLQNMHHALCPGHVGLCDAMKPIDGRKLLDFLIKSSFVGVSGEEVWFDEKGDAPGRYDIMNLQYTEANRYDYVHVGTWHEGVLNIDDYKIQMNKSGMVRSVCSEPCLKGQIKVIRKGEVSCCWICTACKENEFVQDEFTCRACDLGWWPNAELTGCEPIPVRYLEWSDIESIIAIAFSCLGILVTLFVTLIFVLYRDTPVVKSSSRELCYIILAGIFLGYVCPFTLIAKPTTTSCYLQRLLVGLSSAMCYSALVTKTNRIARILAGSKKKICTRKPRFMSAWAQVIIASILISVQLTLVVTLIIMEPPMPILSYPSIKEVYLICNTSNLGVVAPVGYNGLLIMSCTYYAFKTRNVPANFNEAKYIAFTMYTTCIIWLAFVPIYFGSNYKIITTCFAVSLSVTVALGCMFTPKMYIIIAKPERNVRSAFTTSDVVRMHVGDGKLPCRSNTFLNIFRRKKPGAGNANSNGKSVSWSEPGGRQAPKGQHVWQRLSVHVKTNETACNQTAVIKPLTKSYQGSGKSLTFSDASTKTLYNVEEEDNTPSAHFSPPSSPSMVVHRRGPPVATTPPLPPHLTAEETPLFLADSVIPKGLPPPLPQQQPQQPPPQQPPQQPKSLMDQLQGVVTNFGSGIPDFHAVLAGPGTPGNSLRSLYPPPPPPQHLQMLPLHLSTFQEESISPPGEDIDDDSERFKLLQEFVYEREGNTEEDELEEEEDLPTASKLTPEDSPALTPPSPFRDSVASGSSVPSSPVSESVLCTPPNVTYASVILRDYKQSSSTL

[4] = molecular target: T3, Metabotropic glutamate receptor 2 (Rattus norvegicus, UniProt P31421); assay: Tested for the agonistic activity against Metabotropic glutamate receptor 2; Not active
T3 sequence (P31421 whole entry): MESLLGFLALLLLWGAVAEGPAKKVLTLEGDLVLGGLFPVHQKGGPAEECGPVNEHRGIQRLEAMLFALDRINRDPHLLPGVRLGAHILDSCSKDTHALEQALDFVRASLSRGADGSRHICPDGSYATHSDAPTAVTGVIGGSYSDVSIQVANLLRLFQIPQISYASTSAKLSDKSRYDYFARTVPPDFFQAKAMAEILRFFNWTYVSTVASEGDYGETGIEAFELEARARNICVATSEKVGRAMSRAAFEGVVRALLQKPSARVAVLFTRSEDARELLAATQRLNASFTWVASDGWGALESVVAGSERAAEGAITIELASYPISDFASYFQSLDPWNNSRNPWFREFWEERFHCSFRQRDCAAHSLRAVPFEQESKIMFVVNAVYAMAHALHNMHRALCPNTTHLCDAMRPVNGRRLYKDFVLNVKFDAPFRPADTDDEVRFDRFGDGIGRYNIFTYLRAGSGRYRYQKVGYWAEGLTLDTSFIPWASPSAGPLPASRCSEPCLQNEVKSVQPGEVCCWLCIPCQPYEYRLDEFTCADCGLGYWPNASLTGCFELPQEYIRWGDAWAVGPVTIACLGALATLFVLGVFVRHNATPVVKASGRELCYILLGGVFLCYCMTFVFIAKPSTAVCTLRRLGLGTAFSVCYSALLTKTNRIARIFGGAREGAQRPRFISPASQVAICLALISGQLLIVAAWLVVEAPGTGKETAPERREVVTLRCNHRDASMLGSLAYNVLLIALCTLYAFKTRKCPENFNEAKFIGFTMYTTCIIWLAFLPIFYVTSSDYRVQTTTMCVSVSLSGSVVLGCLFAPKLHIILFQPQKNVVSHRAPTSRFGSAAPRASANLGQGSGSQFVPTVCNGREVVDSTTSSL

[5] = molecular target: T1, Metabotropic glutamate receptor 5; assay: Tested for the agonistic activity against Metabotropic glutamate receptor 5; Not active
[6] = molecular target: T2, Metabotropic glutamate receptor 1; assay: Tested for the agonistic activity against Metabotropic glutamate receptor 1
[7] = molecular target: T3, Metabotropic glutamate receptor 2; assay: Tested for the agonistic activity against Metabotropic glutamate receptor 2

Chain of Metabotropic glutamate receptor 6 (P35349 whole entry): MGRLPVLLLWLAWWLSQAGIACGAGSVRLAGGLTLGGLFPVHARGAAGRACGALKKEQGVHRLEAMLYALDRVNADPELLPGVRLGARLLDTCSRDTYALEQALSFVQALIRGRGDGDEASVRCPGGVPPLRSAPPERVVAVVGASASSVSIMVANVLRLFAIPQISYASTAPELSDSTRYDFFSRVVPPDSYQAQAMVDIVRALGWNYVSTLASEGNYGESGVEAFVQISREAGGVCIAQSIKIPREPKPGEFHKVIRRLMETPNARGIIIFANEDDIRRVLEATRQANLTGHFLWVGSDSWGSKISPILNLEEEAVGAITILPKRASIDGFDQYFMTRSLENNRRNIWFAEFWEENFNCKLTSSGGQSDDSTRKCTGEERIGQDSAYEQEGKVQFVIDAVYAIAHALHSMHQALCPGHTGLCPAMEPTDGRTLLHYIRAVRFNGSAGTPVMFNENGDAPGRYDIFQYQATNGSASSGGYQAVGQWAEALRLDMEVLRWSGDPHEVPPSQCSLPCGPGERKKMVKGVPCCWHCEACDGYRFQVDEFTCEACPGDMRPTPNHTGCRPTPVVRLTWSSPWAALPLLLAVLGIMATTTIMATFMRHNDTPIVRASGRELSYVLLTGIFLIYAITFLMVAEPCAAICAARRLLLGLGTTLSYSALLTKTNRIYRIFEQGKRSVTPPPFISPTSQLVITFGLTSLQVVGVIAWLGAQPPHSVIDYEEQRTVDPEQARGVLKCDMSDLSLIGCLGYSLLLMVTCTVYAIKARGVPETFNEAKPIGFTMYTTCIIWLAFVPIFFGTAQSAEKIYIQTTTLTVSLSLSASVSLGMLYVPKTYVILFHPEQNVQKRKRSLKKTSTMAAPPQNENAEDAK
T1 sequence (P31424 whole entry): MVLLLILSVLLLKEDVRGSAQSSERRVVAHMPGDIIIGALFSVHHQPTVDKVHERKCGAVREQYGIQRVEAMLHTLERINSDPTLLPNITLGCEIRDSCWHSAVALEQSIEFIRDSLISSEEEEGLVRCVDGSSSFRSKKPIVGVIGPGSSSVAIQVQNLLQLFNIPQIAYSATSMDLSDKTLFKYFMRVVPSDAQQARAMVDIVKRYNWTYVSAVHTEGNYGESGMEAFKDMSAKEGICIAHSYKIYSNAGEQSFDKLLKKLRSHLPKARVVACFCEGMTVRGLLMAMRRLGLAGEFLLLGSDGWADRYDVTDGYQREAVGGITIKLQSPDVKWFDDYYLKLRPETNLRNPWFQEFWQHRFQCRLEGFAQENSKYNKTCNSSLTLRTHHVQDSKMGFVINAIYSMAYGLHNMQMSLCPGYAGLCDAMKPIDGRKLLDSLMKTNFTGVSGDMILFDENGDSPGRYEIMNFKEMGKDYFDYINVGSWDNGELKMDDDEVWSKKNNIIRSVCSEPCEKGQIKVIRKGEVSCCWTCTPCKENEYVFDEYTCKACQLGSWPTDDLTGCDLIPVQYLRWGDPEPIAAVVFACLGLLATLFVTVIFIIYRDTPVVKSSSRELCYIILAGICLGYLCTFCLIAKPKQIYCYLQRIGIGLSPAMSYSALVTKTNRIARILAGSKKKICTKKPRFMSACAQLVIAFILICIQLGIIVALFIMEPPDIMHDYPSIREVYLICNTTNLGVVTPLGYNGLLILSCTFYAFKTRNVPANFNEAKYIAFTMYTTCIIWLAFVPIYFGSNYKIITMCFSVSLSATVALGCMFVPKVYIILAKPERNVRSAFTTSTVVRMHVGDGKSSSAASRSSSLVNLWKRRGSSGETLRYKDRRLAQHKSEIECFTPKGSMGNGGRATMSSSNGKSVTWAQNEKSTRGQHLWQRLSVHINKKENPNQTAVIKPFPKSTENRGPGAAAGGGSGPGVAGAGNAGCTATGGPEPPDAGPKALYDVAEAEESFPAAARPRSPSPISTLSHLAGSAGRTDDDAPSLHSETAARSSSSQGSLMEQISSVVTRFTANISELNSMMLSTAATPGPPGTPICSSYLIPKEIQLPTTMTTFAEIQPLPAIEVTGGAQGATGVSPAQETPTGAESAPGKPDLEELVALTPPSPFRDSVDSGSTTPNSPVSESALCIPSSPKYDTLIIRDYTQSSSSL

NC(CCP(=O)(O)O)C(=O)O (stereo not given)
EC50 [1]: 1 µM

N[C@@]1(C(=O)O)CC[C@@H](C(=O)O)C1
EC50 [1]: 60 µM
EC50 [2]: 15 µM

O=C(N[C@@]1(C(=O)O)CN[C@@H](C(=O)O)C1)c1ccccc1
EC50 [3]: Not Active
EC50 [4]: Not Active
EC50 [1]: 1000 µM
EC50 [5]: Not Active

N[C@@]1(C(=O)O)CN[C@@H](C(=O)O)C1
EC50 [6]: 100 µM
EC50 [1]: 110 µM
EC50 [7]: 0.3 µM
EC50 [2]: 200 µM

N[C@]1(C(=O)O)C[C@H](C(=O)O)N(Cc2ccccc2)C1
EC50 [6]: > 1000 µM
EC50 [1]: 20 µM
IC50 [7]: 200 µM
IC50 [2]: 600 µM
